From US20060222671A1, “Dermatological compositions and salts for the treatment of dermatological diseases” (Astion Development A/S, priority 2005, published 2006)
“Also recorded” adds a separate entry of the source.

Assays:
skin = details: in vivo; cited from earlier work
[1] = target: T1, Protein Tyrosine Kinase, SYK (Homo sapiens, UniProt P43405); test: Protein Tyrosine Kinase SYK enzyme assay (MDS Pharma Service No. 155761); type: biochemical
T1 construct: purchased MDS Pharma Services (contract assay) 155761
Experimental: (§1) The enzyme assays were conducted by MSD Pharma Services.

[2] = system: oxazolone induced ear inflammation in mice; test: Oxazolone induced mouse ear oedema assay; type: in vivo; details: for inhibition of the formation of ear oedema: Example 7: 500 μg/ear dissolved in 96% ethanol; for % inhibition of ear swelling: 24 hours after challenge
Experimental: This screening method is commonly employed for screening and evaluation of anti-inflammatory drugs, in particular with respect to the inflammation seen in contact dermatitis. Betamethasone-17 valerate was used as the positive control. […] Betamethasone was administered topically in quantities of 20 μg/ear. Betamethasone was applied in the commercial form Celeston valerate® 0.1%. All groups were immunised with 20 μl oxazolone, 1.6% in ethanol 96% (w/v) on the left and the right ear. The ear thickness of all mice on both the left and right side was measured with an electronic measuring gauge. All groups were challenged with 20 μl oxazolone (1.6% in ethanol 96% (w/v)) on the left ear and the right ear. Vehicle (acetone) or test article solutions were administered 20 minutes before and 20 minutes after oxazolone challenge. 24 hours after oxazolone challenge the ear thickness of all mice was measured with an electronic measuring gauge. Mean thickness of the ears and standard deviations were calculated. Ear swelling was calculated as the difference between the ear thickness day 7 and day 8. […] Differences in ear swelling between the vehicle treated group and the other groups were tested for significance employing a non-parametric statistical method of analysis, the Mann-Whitney U test. The required level of significance was p<0.05. […] Both test articles were applied in a dose of 500 μg/ear and dissolved in 96% ethanol. Betamethasone, as the positive control was administered topically in quantities of 20 μg/ear.

Phosphodiesterase PDE IV = Phosphodiesterase PDE IV enzyme assay (MDS Pharma Service No. 154000); type: biochemical
Experimental: as §1

[3] = target: T2, Protein Tyrosine Kinase, ZA70 (ZAP-70) (Homo sapiens, UniProt P43403); test: Protein Tyrosine Kinase ZA70 (ZAP-70) enzyme assay (MDS Pharma Service No. 155987); type: biochemical
T2 construct: purchased MDS Pharma Services (contract assay) 155987
T2 sequence (P43403 1-619): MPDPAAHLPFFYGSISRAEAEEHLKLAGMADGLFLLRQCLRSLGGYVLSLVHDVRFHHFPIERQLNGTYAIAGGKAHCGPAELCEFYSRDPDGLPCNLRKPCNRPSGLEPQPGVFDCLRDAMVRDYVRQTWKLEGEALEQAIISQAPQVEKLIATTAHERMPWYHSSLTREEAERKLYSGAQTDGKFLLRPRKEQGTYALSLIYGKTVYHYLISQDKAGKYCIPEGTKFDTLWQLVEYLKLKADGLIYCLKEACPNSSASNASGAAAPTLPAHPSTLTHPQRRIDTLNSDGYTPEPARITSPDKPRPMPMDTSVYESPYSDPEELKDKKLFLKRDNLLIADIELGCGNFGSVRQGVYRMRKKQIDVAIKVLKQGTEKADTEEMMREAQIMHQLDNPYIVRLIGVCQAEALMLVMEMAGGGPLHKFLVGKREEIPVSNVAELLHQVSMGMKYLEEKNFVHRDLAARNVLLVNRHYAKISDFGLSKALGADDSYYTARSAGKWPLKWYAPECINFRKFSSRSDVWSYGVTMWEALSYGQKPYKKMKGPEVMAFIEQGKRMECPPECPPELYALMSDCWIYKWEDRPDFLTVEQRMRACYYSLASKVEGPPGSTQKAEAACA
Experimental: as §1

contact dermatitis = details: topically applied; cited from earlier work
[4] = system: chronic stable plaque psoriasis; details: topical 1%; cited from earlier work
[5] = system: inflammation following treatment with cryotherapy; details: topical; moderate to severe inflammation following cryotherapy; cited from earlier work
human skin inflammation = details: topical treatment; cited from earlier work
guinea pig skin [6] = details: in vivo
Experimental: Test for skin sensitization is carried out according to the Magnusson and Kligman method (J. Invest. Dermatol. 1969. 52, 268-276) and in accordance with O.E.C.D. Guideline No. 406 of Jul. 17th, 1992, and the test method B.6 of the 96/54 E.E.C Directive.
Albino guinea pigs of Dunkin-Hartley strain were exposed to the test item after an acclimatisation period of at least five days.
The Maximum Non Necrotizing Concentration (M.N.N.C.) was determined by injecting by intradermal route the following concentrations: 2.5%, 1.25%, 0.625%, 0.3125%, 0.1562% and 0.078% diluted in physiological saline solution.
Pre-Maximum Non Irritant Concentration (pre-M.N.I.C.) was determined by application of the test item under an occlusive dressing during 24 hours, at the following concentrations: 2.5%, 1.25%, 0.625%, 0.3125% diluted in physiological saline solution.
Maximum Non Irritant Concentration (M.N.I.C.) was determined by initially establishing an induction phase by intradermal injection with a physiological saline solution and by topical application of distilled water followed by a 18-day rest phase. In the challenge phase where the test item is under occlusive dressing for 24 hours, the test item was applied to the skin of the Albino guinea pigs at the following concentrations: 2.5%, 1.25%, 0.625%, 0.3125% diluted in physiological saline solution.

undamaged skin area = test: Acute dermal irritation; type: in vivo; details: for cutaneous reactions (erythema and oedema): 0.5 mL patch
Experimental: The sample was applied at a dose of 0.5 mL, on an undamaged skin area of the right flank of each animal. The patch was secured in position with a strip of surgical adhesive tape.
On the left flank an untreated area served as the control.
The skin reactions were evaluated after 1 hour and then after 24, 48 and 72 hours following removal of the patch according to the following grading scale:
Erythema (0: No erythema, 1: Slight (barely perceptible) erythema, 2: Definite erythema, 3: Moderate to severe erythema, 4: Severe erythema (purple) with formation of eschars (deep lesions) preventing erythema from being grading).
Oedema (0: No oedema, 1: Very slight (barely perceptible) oedema, 2: Slight oedema (contour clearly defined), 3: Moderate oedema (thickness), 4: Severe oedema (thickness greater than 1 mm, surface larger than zone of application)

[7] = target: T3, anandamide hydrolase (a fatty acid amide hydrolase) (Homo sapiens, UniProt O00519); details: in neurons; cited from earlier work
T3 construct: host or cells: neurons
T3 sequence (O00519 1-579): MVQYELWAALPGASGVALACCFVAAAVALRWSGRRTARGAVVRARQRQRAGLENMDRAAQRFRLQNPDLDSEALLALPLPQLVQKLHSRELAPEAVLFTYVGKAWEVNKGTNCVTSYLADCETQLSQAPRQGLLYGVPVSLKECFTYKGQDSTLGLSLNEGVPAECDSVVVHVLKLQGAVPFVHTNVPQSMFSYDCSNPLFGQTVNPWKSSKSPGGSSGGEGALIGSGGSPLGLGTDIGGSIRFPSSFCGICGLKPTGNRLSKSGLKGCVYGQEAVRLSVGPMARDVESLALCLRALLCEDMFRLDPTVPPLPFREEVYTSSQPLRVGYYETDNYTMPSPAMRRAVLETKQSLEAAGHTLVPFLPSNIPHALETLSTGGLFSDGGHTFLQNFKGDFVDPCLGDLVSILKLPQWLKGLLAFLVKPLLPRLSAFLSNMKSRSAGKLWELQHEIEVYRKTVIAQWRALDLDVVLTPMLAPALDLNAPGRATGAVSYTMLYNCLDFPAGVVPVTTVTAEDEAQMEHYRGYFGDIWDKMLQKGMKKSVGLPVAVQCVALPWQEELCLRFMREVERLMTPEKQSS

guinea pig skin [8] = details: in vivo; remark: listed apart in the source
Experimental: Test for photo toxicity is carried out to evaluate the risk of cutaneous reactions on the guinea pig following exposure to ultraviolet radiation.
Thirty minutes after the treatment, the animals were subjected to ultraviolet radiations (UV-B first and then UV-A).
The animals were irradiated with the irradiation source VLX 3W (Biotronic, Vilbert Lourmat) at the Maximal Non Erythemateous Dose (M.N.E.D) 7000 J/cm2 for UV-A and 150 mJ/cm2 for the UV-B.
A macroscopic evaluation of the cutaneous reactions (erythema and oedema) was conducted 24 and 48 hours after irradiation.

activated monocytes = details: cited from earlier work
NF-kappaB activation = details: in inflammatory cells; cited from earlier work
[9] = 25° C.; cited from earlier work
[10] = Oxaprozin as the monoethanolamine salt
[11] = monoethanolamine salt 5% by weight in water

CC(C(=O)O)c1cccc(C(=O)c2ccccc2)c1 (stereo not shown) [Ketoprofen]
cutaneous side effects (skin): major contact allergens

CCCCOc1ccc(CC(=O)NO)cc1 [Bufexamac]
inhibitory effect on Protein Tyrosine Kinase SYK [1]: only exhibits inhibitory effect on the PDE-IV enzyme | inhibition of the formation of ear oedema [2]: did not inhibit the formation of ear oedema at all | inhibitory effect on the PDE-IV enzyme (Phosphodiesterase PDE IV): exhibits inhibitory effect | cutaneous side effects (skin): reported to cause contact allergy; also recorded: major contact allergens | inhibitory effect on Protein Tyrosine Kinase ZAP-70 [3]: only exhibits inhibitory effect on the PDE-IV enzyme

CCCCC(=O)O[C@]1(C(=O)CO)[C@@H](C)C[C@H]2[C@@H]3CCC4=CC(=O)C=C[C@]4(C)[C@@]3(F)[C@@H](O)C[C@@]21C [Betamethasone 17-valerate]
% inhibition of ear swelling ([2]; 20 μg/ear topical (Celeston valerate 0.1%)): 66%

COc1ccc2c(c1)c(CC(=O)O)c(C)n2C(=O)c1ccc(Cl)cc1 [indomethacin]
response in animal model of contact dermatitis (contact dermatitis): shown to respond | effect on chronic stable plaque psoriasis [4]: no effect | cutaneous side effects (skin): may induce urticarial reactions | relief of erythema and oedema [5]: poor effect in relieving the erythema and oedema

O=C(O)Cc1ccccc1Nc1c(Cl)cccc1Cl [Diclofenac]
cutaneous side effects (skin): irritant-type contact dermatitis may develop

CC(C(=O)O)c1ccc(-c2ccccc2)c(F)c1 (stereo not shown) [flubiprofen]
effect on human skin inflammation (human skin inflammation): reduces human skin inflammation

O=C(O)CCc1nc(-c2ccccc2)c(-c2ccccc2)o1 [Monoethanolamine Oxaprozin]
IC50 [1, 10]: 28 µM | % inhibition of ear swelling ([2]; 250 μg/ear topical in acetone, 20 min before and after challenge): 53% | % inhibition of ear swelling ([2]; 500 μg/ear topical in acetone, 20 min before and after challenge): 77% | % inhibition of ear swelling ([2]; 1000 μg/ear topical in acetone, 20 min before and after challenge): 95% | inhibition of ear swelling (in words) ([2]; 250-1000 μg/ear): dose dependent and highly significant inhibition of ear swelling | inhibition of ear swelling compared with positive control ([2]; highest dose (1000 μg/ear) vs Betamethasone 17-valerate 20 μg/ear): significantly stronger than the inhibition obtained with Betamethasone 17-valerate | IC50 (Phosphodiesterase PDE IV; [10]): 22 µM | skin sensitization (guinea pig skin [6]): not causing sensitization reactions | IC50 [3, 10]: 38 µM

CCC(=O)O[C@]1(C(=O)CCl)[C@@H](C)C[C@H]2[C@@H]3CCC4=CC(=O)C=C[C@]4(C)[C@@]3(F)[C@@H](O)C[C@@]21C [clobetasol propionate]
relief of erythema and oedema [5]: proved to have effect

O=C(O)CCc1nc(-c2ccccc2)c(-c2ccccc2)o1 [Oxaprozin, 4,5-diphenyl-2-oxazole-propionic acid]
cutaneous reactions (erythema and oedema) (undamaged skin area; monoethanolamine salt 2.5% by weight in water, 1, 24, 48, 72 hours): no cutaneous reactions (erythema and oedema) were observed | reversibility of erythema (undamaged skin area; [11]): totally reversible between the 2nd and the 3rd day of the test | cutaneous reactions (erythema and oedema) (undamaged skin area; [11]): only a slight erythema on the treated area at the reading time 1 hour | inhibition of anandamide hydrolase [7]: inhibits | inhibition of the formation of ear oedema [2]: statistically significant inhibition of the formation of ear oedema | photo toxicity (guinea pig skin [8]): not phototoxic | apoptosis of activated monocytes (activated monocytes): induces apoptosis of activated monocytes in a dose-dependent manner | inhibition of NF-kappaB activation (NF-kappaB activation): inhibits | solubility in water [9]: about 1.7 mg/ml

CC(=O)Oc1ccccc1C(=O)O [aspirin]
cutaneous side effects (skin): may induce urticarial reactions

CN1C(C(=O)Nc2ccccn2)=C(O)c2ccccc2S1(=O)=O [piroxicam]
cutaneous side effects (skin): can lead to phototoxic or photo allergic dermatitis
